Values after ≈ are worked out from the molar mass of the structure shown. Like-named read-outs stand apart in the source and are kept apart here.
How the values were obtained:
female hairless mice = format: in vivo; settings: for Death/Total: animals died from a group of 5; for % Weight Change: end of 14 day test or at death; for Flaking/scaling grade: scale 0 to +5
Procedure: Specifically, tests to determine skin toxicity were performed on certain examplary compounds in accordance with the present invention, and on certain analogous compounds which lack the R3 substituent in accordance with Formula 1, 2 or 3. A “Two Week Acute Skin Toxicity Study of Multiple Topical Applications in Female Hairless Mice” is conducted as follows: a daily dose (expressed in nanomoles) of the “test compound” is applied to the skin on the back of hairless mice (usually a test group of 5 mice for a given compound). The daily dose of the test compound is applied for 5 consecutive days, followed by two days when the test compound is not administered, and is thereafter administered again for 4 more consecutive days. On the 14th day the test animals if still alive, are sacrificed to perform certain studies and tests. In the meanwhile certain tests and observations are made on a daily basis with respect to body weight and skin condition. Skin condition is graded as “flaking/scaling” and “abrasion” on a scale of 0 to +5 where the various numbers correspond to the following observations.
Results of these tests are summarized in Table 3, where daily dose is expressed in nanomoles, weight loss of the test animals is in percentages at the end of the 14 day test period, or at the time the test animal expired, and mortality is expressed with the number of animals which died from a group of 5.

[1] = test system: tissue transglutaminase (tTGASE) in HL-60 cells; assay: Tissue Transglutaminase Assay (tTGASE) in HL-60 Cells; format: cell-based; settings: FIGS. 6-9
Procedure: Other assays in which the retinoid like activity of the compounds used in accordance with the invention are confirmed are the HL-60 transglutaminase induction and HL-60 differentiation assay, the procedures of which are described as follows.
HL-60 cells were grown as a suspension culture in T-162 cm^2 flasks in serum-free RPMI 1640 medium supplemented with insulin (5 μg/ml), transferrin (5 μg/ml), and selenium (3 nM). The cells (1×10^6 cells/well, in 6-well dishes) were treated with serial dilutions of test compounds in the above RPMI 1640 medium which was additionally supplemented with […] dibutyryl cyclic adenosine monophosphate, a component found to be necessary for efficient differentiation of the cells. Ethanol was used in the vehicle control cultures. After 1 days of incubation at 37° C. in a 7.5% CO2 incubator, the cells were collected in a set of tubes and pelleted by centrifugation. The cells were lyzed in a buffer containing 20 mM Tris-HCl, pH 7.5, 1 mM EDTA, and 0.5% Triton X-100. An aliquot of the cell lysate was assayed for tTGASE activity in a reaction mixture containing 20 mM Tris-HCl, pH 7.5, 5 mM CaCl2, 2 mg/ml dimethylcasein, 15 mM B-mercaptoethanol and 50 μCi/ml [2,3-^3H] putrescine dihydrochloride. The reaction was carried out for 60 minutes in a 37° C. shaking water bath. The reaction was stopped by an addition of 10% trichloroacetic acid containing 0.1% putrescein. An aliquot of the stopped reaction mixture was spotted on Whatman 3 MM filter discs. The filter discs, along with the control blank filter discs, were washed twice with 5% trichloroacetic acid containing 0.1% putrescein and twice with methanol. After drying under a heat lamp, the radioactivity in the filter discs was determined by scintillation counting. An aliquot of the cell lysates was also assayed for […] by the Bradford method (Bio-Rad). After subtracting the radioactivity from the control blank filter discs, the data were calculated and expressed as pmol/min/mg protein.
As is well understood in the art, induction of tranglutaminase activity in the just-described assay is an early marker of retinoid like activity.

gestating ICR mice = assay: in vivo teratology study, single oral dose on day 11 of gestation; design: species or system mouse
Procedure: The methodology of the study is described as follows:
ICR mice (Ace Animals, Boyertown, Pa.) were used. Mature male and virgin female ICR mice were housed in environmentally controlled rooms and acclimatized to a 12 hour light/dark cycle (light cycle 6 A.M. to 6 P.M.) for 2 weeks prior to use. All animals were maintained on Purina Lab Chow and tap water ad libitum. A group of 3-4 females was caged with a single male of proven fertility for 4 hours. Presence of a vaginal plug immediately afterward was regarded as evidence of successful mating, and this day was designated as day 0 of gestation.
[…] All animals were killed by cervical dislocation under mild ether anesthesia on day 17 of gestation. Upon laparotomy, the fetuses were examined for external malformations and weighed; one-half of each litter was then fixed in 95% ethanol and processed for staining of the skeleton by the rapid, alizarin red-S dye method. These preparations were examined under a dissection microscope to screen for abnormalities in the axial and the appendicular skeleton. The other half of each litter was fixed in Bouin's solution and examined by freehand razor serial sectioning to screen for anomalies of the brain, face, and palate.
Differences in dose-related incidence of malformations and resorptions were assessed by computing percentages of affected conceptuses among total implantation sites. The groups were compared statistically by a method based on Student's t-tests of arcs in square root transformed percentages. Values at 0.05 probability level were considered significant. The median effective dose was calculated by logarithmic curve fitting of the dose-response data.

human sebocyte cultures = assay: human sebocyte culture 3H-thymidine incorporation (DNA synthesis, anti-proliferative effect); format: cell-based; settings: human sebocytes, 8 days treatment, FIG. 2
Text: The retinoid like activity of the compounds used in accordance with the method of treatment of the present invention and of the novel compounds of the invention can be confirmed by several assay procedures. An assay involving human sebocyte cultures measures the inhibition of ^3H-thymidine into cells, and thus measures inhibition of DNA synthesis and thus an anti-proliferative effect on sebocyte (i.e. a sebostatic effect). This assay is also considered a specific assay for effectiveness of a compound as a potential anti-acne drug. The test is conducted as follows.
Face-lift or forehead reduction skins from cosmetic surgeries were used as sources of human sebaceous gland cells (sebocytes).
Isolated sebocytes were plated in type 1 collagen coated-dishes in DMEM/F12 (1:1) medium supplemented with 8% fetal bovine serum, 2% human serum, 10 ng/ml epidermal growth factor, 1 nM cholera toxin, 1 μM hydrocortisone, and penicillin/streptomycin/amphotericin B. Secondary cultures were prepared by plating Dispase dissociated cells in collagen coated 24-well plates.
Sub-confluent secondary cultures were treated with the test compounds or ethanol vehicle every 2-3 days for 8 days in the above medium from which the total serum concentration was reduced to 2% and hydrocortisone was not included. During the last 6 hours of treatment, the cultures were labeled with 2 μCi/ml ^3H-thymidine. DNA from the cells were extracted by thichoroacetic acid and perchloric acid, and assayed for radioactivity by scintillation counting and for content of DNA by the diphenylamine calorimetric method. The results were expressed as CPM/μg DNA, or as per cent of vehicle control which incorporated about 1,000-1,500 cpm/μg DNA.

[2] = test system: limb bud mesenchymal cells; assay: inhibition of chondrogenesis in high-density spot cultures of limb bud mesenchymal cells; format: cell-based; settings: Mus musculus; limb bud mesenchymal cell spot cultures, terminated 96 hours after plating; read-out: IC50 (concentration which inhibited chondrogenesis by 50%)
Text: In an in vitro bioassay which measures inhibition of chondrogenesis (bone formation) in […] as a classic measure of teratogenecity the results shown in Table 2 were obtained. The assay is described as follows:
High-density “spot” cultures of limb bud mesenchymal cells were used to compare the ability of various concentrations of test drugs to suppress chondrogenic differentiation as a bioassay. Forelimb buds of mouse embryos on day 12 of gestation (54±2 somites) were dissociated in a trypsin-EDTA solution, and the resultant single-cell suspension was plated as 20-μl spots (200,000 cells/spot) on plastic culture dishes. Retinoid concentrations ranging from 0.3 ng/ml to 3 μg/ml (1 nM-10 μM) were added to the culture medium (Eagle's MEM+10% fetal bovine serum, GIBCO) 24 hours after initial plating. […]
The cultures were terminated 96 hours after plating, at which time the medium was removed and the cells were fixed for 1 hour in 10% formalin containing 0.5% cetylpyridinium chloride. The cultures were rinsed in acetic acid and stained for 1 hour in 0.5% Alcian blue solution at pH 1.0, differentiated in 3% acetic acid, and then dehydrated in ethanol and scored for chondrogenesis under the microscope. […] The number of cartilage nodules stained in the whole spot, mean number of nodules, and standard deviations were calculated for four replicate cultures per treatment. […]

[3] = pharmacokinetic study, drug concentration in maternal plasma and embryo after oral intubation; format: in vivo; settings: mice, 10mg/kg dose, FIG. 1
Procedure: FIG. 1 is a graph showing the concentration of compound AGN 191701 in nanograms per ml, or nanograms per gram as indicated on the chart, in the plasma and embryo of mice at various times after oral intubation of a single dose of 10 mg/kg of the compound.
In contrast, the teratogenecity of prior art compound AGN 191183 is so high that even an undetectably low concentration of the drug already causes defective embryos.

[4] = daily dose 75 nanomoles topical
[5] = daily dose 124 nanomoles topical
[6] = daily dose 1240 nanomoles topical
[7] = single oral dose 1 mg/kg, day 11 of gestation, ICR mice
[8] = single oral dose 10 mg/kg, day 11 of gestation, ICR mice
[9] = single oral dose 100 mg/kg, day 11 of gestation, ICR mice
[10] = female, ICR, mouse, in vivo, po, 1 mg/kg, 17 day of gestation
[11] = female, ICR, mouse, in vivo, po, 10 mg/kg, 17 day of gestation
[12] = female, ICR, mouse, in vivo, po, 100 mg/kg, 17 day of gestation

CCOC(=O)c1ccc(/C=C(\C)c2cc3c(cc2C)C(C)(C)CCC3(C)C)cc1 [AGN191422, Ethyl 4-[(E)-2-(5,6,7,8-Tetrahydro-3,5,5,8,8-pentamethylnaphthalen-2-yl)propen-1-yl]benzoate]
Death/Total (female hairless mice; daily dose 60 nanomoles topical): 0/5 | Death/Total (female hairless mice; daily dose 64 nanomoles topical): 0/5

CCOC(=O)c1ccc(/C=C(\C)c2cc(C(C)(C)C)ccc2C)cc1 [AGN191544, Ethyl 4-[(E)-2-(2-Methyl-5-tert-butylphenyl)propen-1-yl]benzoate]
Death/Total (female hairless mice; daily dose 800 nanomoles topical): 0/5

CCOC(=O)c1ccc(/C=C(\C)c2cc3c(cc2C)OC(C)(C)CC3(C)C)cc1 [AGN191549, Ethyl 4-[(E)-2-(2,2,4,4,7-Pentamethyl-chroman-6-yl)propen-1-yl]-benzoate]
Death/Total (female hairless mice; daily dose 300 nanomoles topical): 0/5

C/C(=C\c1ccc(C(=O)O)cc1)c1cc2c(cc1C)C(C)(C)CCC2(C)C [AGN 191440]
induction of transglutaminase activity [1]: active | Death/Total (female hairless mice; [4]): 0/5 | % Weight Change (female hairless mice; [4]): 3.1% | Flaking/scaling grade (female hairless mice; [4]): +2 (Slight (˜25% or less)) | Death/Total (female hairless mice; [5]): 0/5 | % Weight Change (female hairless mice; [5]): −2.7% | Flaking/scaling grade (female hairless mice; [5]): +2 (Slight (˜25% or less)) | Death/Total (female hairless mice; [6]): 3/5 | % Weight Change (female hairless mice; [6]): −19.5% | Flaking/scaling grade (female hairless mice; [6]): +4 (Moderate (greater than ˜50%, less than ˜75%)) | times less teratogenic than AGN 191183 (gestating ICR mice; comparison of doses producing teratogenic effects in ICR mice): approximately 100 times | # Litters Normal (gestating ICR mice; [7]): 5 | Teratogenic Effects % Cleft Palate (gestating ICR mice; [7]): 13% | Teratogenic Effects % Limb Defects (gestating ICR mice; [7]): 17% | Teratogenic Effects % Resorbed (gestating ICR mice; [7]): 19% | # Litters Normal (gestating ICR mice; [8]): 1 | Teratogenic Effects % Cleft Palate (gestating ICR mice; [8]): 88% | Teratogenic Effects % Limb Defects (gestating ICR mice; [8]): 75% | Teratogenic Effects % Resorbed (gestating ICR mice; [8]): 2% | # Litters Normal (gestating ICR mice; [9]): 0 | Teratogenic Effects % Resorbed (gestating ICR mice; [9]): 100%

C/C(=C\c1ccc(C(=O)O)cc1)c1cc2c(cc1Cl)C(C)(C)CCC2(C)C [AGN 191642, 4[(E)-2-(3-Chloro-5,6,7,8-tetrahydro-5,5,8,8-tetramethylnaphthalen-2-yl)propen-1-yl]benzoic Acid]
induction of transglutaminase activity [1]: active

C/C(=C\c1ccc(C(=O)O)s1)c1cc2c(cc1C)C(C)(C)CCC2(C)C [AGN 191659, 5-[(E)-2-(5,6,7,8-Tetrahydro-3,5,5,8-pentamethylnaphthalen-2-yl)propen-1-yl]-2-thiophenecarboxylic Acid]
induction of transglutaminase activity [1]: active | inhibition of 3H-thymidine incorporation (effectiveness in sebocyte assay) (human sebocyte cultures): effective

C/C(=C\c1cc(C(=O)O)cs1)c1cc2c(cc1C)C(C)(C)CCC2(C)C [AGN 191701, 2-[(E)-2-(5,6,7,8-Tetrahydro-3,5,5,8,8-pentamethylnaphthalen-2-yl)propen-1-yl]thiophene-4-carboxylic Acid]
induction of transglutaminase activity [1]: active | inhibition of 3H-thymidine incorporation (effectiveness in sebocyte assay) (human sebocyte cultures): effective | times less teratogenic than AGN 191183 (gestating ICR mice; female, ICR, mouse, in vivo, 17 day of gestation): approximately 10^4 times | # Litters Normal (gestating ICR mice; [10]): 1 | Teratogenic Effects % Cleft Palate (gestating ICR mice; [10]): 0% | Teratogenic Effects % Limb Defects (gestating ICR mice; [10]): 0% | Teratogenic Effects % Resorbed (gestating ICR mice; [10]): 18% | # Litters Normal (gestating ICR mice; [11]): 3 | Teratogenic Effects % Cleft Palate (gestating ICR mice; [11]): 0% | Teratogenic Effects % Limb Defects (gestating ICR mice; [11]): 0% | Teratogenic Effects % Resorbed (gestating ICR mice; [11]): 14% | # Litters Normal (gestating ICR mice; [12]): 2 | Teratogenic Effects % Cleft Palate (gestating ICR mice; [12]): 19% | Teratogenic Effects % Limb Defects (gestating ICR mice; [12]): 22% | Teratogenic Effects % Resorbed (gestating ICR mice; [12]): 2% | teratogenic effect (in words) (gestating ICR mice; mouse, in vivo): very little teratogeneic effect | IC50 [2]: 19 µg/mL (≈ 51.6 µM) | concentration of the drug in the maternal plasma and in the embryo [3]: present in substantial concentration

— patent US6624188B1, “Method of treatment with compounds having retinoid-like activity and reduced skin toxicity and lacking teratogenic effects” (Allergan, Inc., priority 1992, dated 2003)
